Assay results taken from patent US10669267B2, “Substituted N-[2-(4-phenoxypiperidin-1-yl)-2-(1,3-thiazol-5-yl)ethyl]benzamide and N-[2-(4-benzyloxypiperidin-1-yl)-2-(1,3-thiazol-5-yl)ethyl]benzamide derivatives P2X7 receptor antagonists” (Axxam S.P.A., priority 2016, dated 2020).
Read-outs that look alike come from different tables or passages of the source.

How the values were obtained:
rat P2X7R = rat P2X7R (Rattus norvegicus (Rat), UniProt Q64663); assay: rat P2X7 Ca2+ influx, Screen Quest Fluo-8 No Wash Calcium Assay Kit (FLIPR TETRA); type: cell-based; conditions: read-out: rP2X7 (IC50; nM)
rat P2X7R, sequence (Q64663 whole entry): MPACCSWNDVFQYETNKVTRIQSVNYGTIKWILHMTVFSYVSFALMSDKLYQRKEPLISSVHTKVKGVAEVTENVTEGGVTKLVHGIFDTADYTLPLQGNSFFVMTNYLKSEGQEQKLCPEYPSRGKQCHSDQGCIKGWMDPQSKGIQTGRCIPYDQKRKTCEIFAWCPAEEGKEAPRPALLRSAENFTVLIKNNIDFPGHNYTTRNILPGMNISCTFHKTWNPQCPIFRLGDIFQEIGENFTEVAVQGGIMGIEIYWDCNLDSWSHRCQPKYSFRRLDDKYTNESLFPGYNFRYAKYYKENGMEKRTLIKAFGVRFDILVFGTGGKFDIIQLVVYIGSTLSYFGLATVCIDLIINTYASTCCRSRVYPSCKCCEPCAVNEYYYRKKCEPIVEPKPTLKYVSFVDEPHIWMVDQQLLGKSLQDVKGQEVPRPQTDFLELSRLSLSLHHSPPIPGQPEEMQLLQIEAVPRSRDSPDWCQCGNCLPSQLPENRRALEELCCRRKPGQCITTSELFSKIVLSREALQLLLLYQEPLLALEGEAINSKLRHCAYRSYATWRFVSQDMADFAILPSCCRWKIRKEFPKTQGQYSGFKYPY
Experimental: Ca^2+ influx was measured in HEK-293 cells stably transfected with the receptor using Screen Quest™ Fluo-8 No Wash Calcium Assay Kit (AAt Bioquest®). Briefly, once inside the cells, the lipophilic blocking groups of Fluo-8 are cleaved by non-specific cell esterases, resulting in a negatively-charged fluorescent-dye that stays inside cells. Its fluorescence increases upon binding to calcium. When HEK-293/P2X7 cells were stimulated with BzATP, Ca^2+ entered the cells and the fluorescence of Fluo-8 NW increaseed.
To routinely test the compounds, HEK-293 cells stably transfected with rat P2X7R were seeded overnight in growth medium at 10000, 15000 or 20000 cells/well in 384-well plate, according to the level of response after thawing. 24 hours later, the medium was removed and the cells were pre-loaded at RT for 1 hour with 20 μL/w of Fluo-8 NW prepared in Tyrode 0.3 mM Ca^2+/Mg^2+-free.
Compounds were tested at […] according to the following method: • first injection at […] of 10 μL of 3× test compound (in Tyrode's buffer 0.3 mM Ca^2+/Mg^2+-free+DMSO 0.5% final concentration) • 5′ incubation • second injection at […] of 15 µL of 3× BzATP at ˜ECK) (in Tyrode's buffer 0.3 mM Ca^2+/Mg^2+-free+BSA 0.0003% final concentration) • Fluorescence recording for 3′
Between one plate and the following, tips were extensively washed with water, then with 100% DMSO and finally with water to avoid carry-over inside the tips.
The effect of the test compounds was measured as percent inhibition vs a reference antagonist and IC50 values were calculated accordingly.

human P2X7 channel = human P2X7 channel (Homo sapiens (Human), UniProt Q99572); assay: human P2X7 channel assay by automated patch-clamp (QPatch16X), BzATP-evoked current; type: cell-based; conditions: HEK-293 cells expressing P2X7, whole-cell voltage clamp, 100 microM BzATP, holding -80 mV; read-out: hP2X7 (IC50; nM)
human P2X7 channel, sequence (Q99572 whole entry): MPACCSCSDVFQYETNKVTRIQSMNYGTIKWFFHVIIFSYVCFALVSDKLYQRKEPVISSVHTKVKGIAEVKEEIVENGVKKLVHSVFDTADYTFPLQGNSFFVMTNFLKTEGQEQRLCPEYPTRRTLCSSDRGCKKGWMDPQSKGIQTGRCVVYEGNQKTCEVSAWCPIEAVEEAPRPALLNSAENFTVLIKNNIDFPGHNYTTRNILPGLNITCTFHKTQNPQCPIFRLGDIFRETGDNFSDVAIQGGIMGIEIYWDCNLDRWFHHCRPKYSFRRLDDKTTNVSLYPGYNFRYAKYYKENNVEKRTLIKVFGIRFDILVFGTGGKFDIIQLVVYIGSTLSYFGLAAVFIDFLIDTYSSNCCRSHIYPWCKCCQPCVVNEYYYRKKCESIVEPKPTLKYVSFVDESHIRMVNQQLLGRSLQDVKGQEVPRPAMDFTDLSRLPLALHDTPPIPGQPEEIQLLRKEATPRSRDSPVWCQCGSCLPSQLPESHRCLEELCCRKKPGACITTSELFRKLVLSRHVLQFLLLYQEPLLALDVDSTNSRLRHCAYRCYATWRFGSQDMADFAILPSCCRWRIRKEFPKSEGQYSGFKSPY
Experimental: In order to directly monitor the block of P2X7 channel, an electrophysiological assay was developed and implemented on the QPatch16X automated electrophysiology instrument.
HEK-293 cells expressing the P2X7 channels were cultured in modified EMEM.
72 hours before experiment, 5 million cells were seeded onto T225 flasks. Just before the experiment cells were washed twice, detached from the flask with trypsin-EDTA, re-suspended in the suspension solution and placed on the QPatch 16x.
The compounds (20 mM in a 100% DMSO) stored at −20° C. were prepared the day of the experiment (a first dilution 1:20 in 100% DMSO to prepare a 1 mM stock solution, then a 1 microM solution in external solution+a serial dilution 1:10).
The standard whole-cell voltage clamp experiments were performed at room temperature. For these experiments the multihole technology was used and the data were sampled at 2 KHz.
After establishment of the seal and the passage in the whole cell configuration, the cells were held at −80 mV. The P2XR7 current was evoked by applying 100 microM of BzATP alone (4 times) and then in the presence increasing concentrations of the compound under investigation (1, 10, 100 and 1000 nM).
The pre-incubation periods 5 to 8 contain increasing concentrations of the compound of interest (1, 10, 100 and 1000 nM), as illustrated in FIGURE.
The maximal inward current evoked by BzATP in absence or presence of increasing concentrations of the compounds under investigation was measured and normalized.
Y: normalized response, 100% down to 0%, decreasing as X increases.
LogIC50: same log units as X
HillSlope: slope factor or HS, unitless

[1] = Table 4, HEK-293 cells stably transfected with rat P2X7R, BzATP stimulation
[2] = Table 5, comparison with Compound 59 of WO2015118019

| IC50 (rat P2X7R; [1]) [nM] | IC50 (human P2X7 channel) [nM] | IC50 (rat P2X7R; [2]) [nM] | Compound |
| --- | --- | --- | --- |
| 2020 |  |  | O=C(NCC(c1scnc1C(F)F)N1CCC(Oc2ccc(Cl)cc2)CC1)c1c(F)cccc1Cl (stereo not shown) [Compound 28, 2-chloro-N-{2-[4-(4-chlorophenoxy)piperidin-1-yl]-2-[4-(difluoromethyl)-1,3-thiazol-5-yl]ethyl}-6-fluorobenzamide] |
| 583 | 42.9 |  | Cc1ncsc1C(CNC(=O)c1c(F)cccc1Cl)N1CCC(Oc2ccccc2F)CC1 (stereo not shown) [Compound 10, 2-chloro-6-fluoro-N-{2-[4-(2-fluorophenoxy)piperidin-1-yl]-2-(4-methyl-1,3-thiazol-5-yl)ethyl}benzamide] |
| 371 | 42.1 |  | Cc1ncsc1C(CNC(=O)c1cccc2ncccc12)N1CCC(OCc2ccc(F)cc2)CC1 (stereo not shown) [Compound 13, N-(2-{4-[(4-fluorophenyl)methoxy]piperidin-1-yl}-2-(4-methyl-1,3-thiazol-5-yl)ethyl)quinoline-5-carboxamide] |
| 288 | 11.6 |  | Cc1ncsc1C(CNC(=O)c1cccc2ncccc12)N1CCC(OCc2cccc(F)c2)CC1 (stereo not shown) [Compound 15, N-(2-{4-[(3-fluorophenyl)methoxy]piperidin-1-yl}-2-(4-methyl-1,3-thiazol-5-yl)ethyl)quinoline-5-carboxamide] |
| 144 | 39.7 | 144 | O=C(NCC(c1scnc1C(F)F)N1CCC(Oc2ccc(F)cc2)CC1)c1cccc2ncccc12 (stereo not shown) [Compound 34, N-{2-[4-(difluoromethyl)-1,3-thiazol-5-yl]-2-[4-(4-fluorophenoxy)piperidin-1-yl]ethyl}quinoline-5-carboxamide] |
| 133 | 43.2 | 133 | O=C(NCC(c1scnc1C(F)F)N1CCC(Oc2ccccc2F)CC1)c1cccc2ncccc12 (stereo not shown) [Compound 37, N-{2-[4-(difluoromethyl)-1,3-thiazol-5-yl]-2-[4-(2-fluorophenoxy)piperidin-1-yl]ethyl}quinoline-5-carboxamide] |
| 953 | 28.1 |  | Cc1ncsc1C(CNC(=O)c1c(F)cccc1Cl)N1CCC(OCc2ccccc2F)CC1 (stereo not shown) [Compound 4, 2-chloro-6-fluoro-N-(2-{4-[(2-fluorophenyl)methoxy]piperidin-1-yl}-2-(4-methyl-1,3-thiazol-5-yl)ethyl)benzamide] |
| 201 | 57.9 | 201 | Cc1ncsc1C(CNC(=O)c1cccc2ncccc12)N1CCC(Oc2ccc(F)c(F)c2)CC1 (stereo not shown) [Compound 24, N-{2-[4-(3,4-difluorophenoxy)piperidin-1-yl]-2-(4-methyl-1,3-thiazol-5-yl)ethyl}quinoline-5-carboxamide] |
| 374 | 36.9 |  | Cc1ncsc1C(CNC(=O)c1cccc2ncccc12)N1CCC(OCc2ccc(F)c(F)c2)CC1 (stereo not shown) [Compound 18, N-(2-{4-[(3,4-difluorophenyl)methoxy]piperidin-1-yl}-2-(4-methyl-1,3-thiazol-5-yl)ethyl)quinoline-5-carboxamide] |
| 251 |  |  | O=C(NCC(c1scnc1C(F)F)N1CCC(OCc2ccccc2F)CC1)c1cccc2ncccc12 (stereo not shown) [Compound 32, N-{2-[4-(difluoromethyl)-1,3-thiazol-5-yl]-2-{4-[(2-fluorophenyl)methoxy]piperidin-1-yl}ethyl}quinoline-5-carboxamide] |
| 458 |  |  | O=C(NCC(c1scnc1C(F)F)N1CCC(Oc2cc(F)cc(F)c2)CC1)c1c(F)cccc1Cl (stereo not shown) [Compound 31, 2-chloro-N-{2-[4-(difluoromethyl)-1,3-thiazol-5-yl]-2-[4-(3,5-difluorophenoxy)piperidin-1-yl]ethyl}-6-fluorobenzamide] |
| 323 |  |  | O=C(NCC(c1scnc1C(F)F)N1CCC(Oc2ccc(Cl)cc2)CC1)c1cccc2ncccc12 (stereo not shown) [Compound 35, N-{2-[4-(4-chlorophenoxy)piperidin-1-yl]-2-[4-(difluoromethyl)-1,3-thiazol-5-yl]ethyl}quinoline-5-carboxamide] |
| 373 | 5.95 |  | Cc1ncsc1C(CNC(=O)c1c(F)cccc1Cl)N1CCC(OCc2cccc(F)c2)CC1 (stereo not shown) [Compound 3, 2-chloro-6-fluoro-N-(2-{4-[(3-fluorophenyl)methoxy]piperidin-1-yl}-2-(4-methyl-1,3-thiazol-5-yl)ethyl)benzamide] |
| 1310 |  |  | Cc1ncsc1C(CNC(=O)c1c(F)cccc1Cl)N1CCC(Oc2ccc(Cl)cc2)CC1 (stereo not shown) [Compound 8, 2-chloro-N-{2-[4-(4-chlorophenoxy)piperidin-1-yl]-2-(4-methyl-1,3-thiazol-5-yl)ethyl}-6-fluorobenzamide] |
| 1160 |  |  | Cc1ncsc1C(CNC(=O)c1c(F)cccc1Cl)N1CCC(OCc2ccc(F)c(F)c2)CC1 (stereo not shown) [Compound 6, 2-chloro-N-(2-{4-[(3,4-difluorophenyl)methoxy]piperidin-1-yl}-2-(4-methyl-1,3-thiazol-5-yl)ethyl)-6-fluorobenzamide] |
| 762 |  |  | Cc1ncsc1C(CNC(=O)c1cccc2ncccc12)N1CCC(OCc2ccccc2F)CC1 (stereo not shown) [Compound 16, N-(2-{4-[(2-fluorophenyl)methoxy]piperidin-1-yl}-2-(4-methyl-1,3-thiazol-5-yl)ethyl)quinoline-5-carboxamide] |
| 971 |  |  | Cc1ncsc1C(CNC(=O)c1c(F)cccc1Cl)N1CCC(OCc2ccc(Cl)cc2)CC1 (stereo not shown) [Compound 2, 2-chloro-N-(2-{4-[(4-chlorophenyl)methoxy]piperidin-1-yl}-2-(4-methyl-1,3-thiazol-5-yl)ethyl)-6-fluorobenzamide] |
| 578 |  |  | O=C(NCC(c1scnc1C(F)F)N1CCC(OCc2cc(F)cc(F)c2)CC1)c1c(F)cccc1Cl (stereo not shown) [Compound 26, 2-chloro-N-{2-[4-(difluoromethyl)-1,3-thiazol-5-yl]-2-{4-[(3,5-difluorophenyl)methoxy]piperidin-1-yl}ethyl}-6-fluorobenzamide] |
| 295 |  |  | O=C(NCC(c1scnc1C(F)F)N1CCC(Oc2cccc(F)c2)CC1)c1cccc2ncccc12 (stereo not shown) [Compound 36, N-{2-[4-(difluoromethyl)-1,3-thiazol-5-yl]-2-[4-(3-fluorophenoxy)piperidin-1-yl]ethyl}quinoline-5-carboxamide] |
| 252 |  |  | O=C(NCC(c1scnc1C(F)F)N1CCC(OCc2ccccc2F)CC1)c1c(F)cccc1Cl (stereo not shown) [Compound 25, 2-chloro-N-{2-[4-(difluoromethyl)-1,3-thiazol-5-yl]-2-{4-[(2-fluorophenyl)methoxy]piperidin-1-yl}ethyl}-6-fluorobenzamide] |
| 1210 |  |  | O=C(NCC(c1scnc1C(F)F)N1CCC(OCc2ccc(F)c(F)c2)CC1)c1c(F)cccc1Cl (stereo not shown) [Compound 27, 2-chloro-N-{2[4-(difluoromethyl)-1,3-thiazol-5-yl]-2-{4-[(3,4-difluorophenyl)methoxy]piperidin-1-yl}ethyl}-6-fluorobenzamide] |
| 1120 |  |  | Cc1ncsc1C(CNC(=O)c1cccc2ncccc12)N1CCC(OCc2ccc(Cl)cc2)CC1 (stereo not shown) [Compound 14, N-(2-{4-[(4-chlorophenyl)methoxy]piperidin-1-yl}-2-(4-methyl-1,3-thiazol-5-yl)ethyl)quinoline-5-carboxamide] |
| 216 |  |  | O=C(NCC(c1scnc1C(F)F)N1CCC(Oc2cc(F)cc(F)c2)CC1)c1cccc2ncccc12 (stereo not shown) [Compound 38, N-{2-[4-(difluoromethyl)-1,3-thiazol-5-yl]-2-[4-(3,5-difluorophenoxy)piperidin-1-yl]ethyl}quinoline-5-carboxamide] |
| 631 |  |  | Cc1ncsc1C(CNC(=O)c1cccc2ncccc12)N1CCC(Oc2cc(F)cc(F)c2)CC1 (stereo not shown) [Compound 23, N-{2-[4-(3,5-difluorophenoxy)piperidin-1-yl]-2-(4-methyl-1,3-thiazol-5-yl)ethyl}quinoline-5-carboxamide] |
| 808 |  |  | Cc1ncsc1C(CNC(=O)c1cccc2ncccc12)N1CCC(Oc2ccc(Cl)cc2)CC1 (stereo not shown) [Compound 20, N-{2-[4-(4-chlorophenoxy)piperidin-1-yl]-2-(4-methyl-1,3-thiazol-5-yl)ethyl}quinoline-5-carboxamide] |
